Columns and labels:
[1] = target: T1, hGPR119 (Homo sapiens, UniProt Q8TDV5); test: In vitro cyclic AMP assay (Cisbio HTRF) in CHO-hGPR119 cells; type: cell-based; details: cAMP; for activation at 1 µM: 1 h, 60 min, read-out: Induction (% induction at 1 μM); for EC50: class symbols, legend not given
T1 construct: expressed in transfected cells; host or cells: CHO cells (CHO-hGPR119)
T1 sequence (Q8TDV5 1-335): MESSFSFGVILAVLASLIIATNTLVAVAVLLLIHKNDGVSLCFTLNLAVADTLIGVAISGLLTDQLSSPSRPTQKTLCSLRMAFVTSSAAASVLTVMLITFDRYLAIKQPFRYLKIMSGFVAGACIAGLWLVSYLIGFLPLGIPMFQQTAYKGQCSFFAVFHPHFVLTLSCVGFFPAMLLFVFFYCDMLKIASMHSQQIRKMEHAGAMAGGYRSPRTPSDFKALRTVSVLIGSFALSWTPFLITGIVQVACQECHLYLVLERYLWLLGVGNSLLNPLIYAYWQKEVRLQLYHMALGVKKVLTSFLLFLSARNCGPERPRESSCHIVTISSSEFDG
Method in brief: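 Cells plated at 5000/well and exposed to test compound dose series for 60 min at room temperature with 1 mM IBMX and 0.5% DMSO (final). Lysis with anti-cAMP antibody/d2-cAMP detection reagents, 1 h at room temperature; HTRF read at 665/620 nm (337 nm excitation); EC50 from concentration-response.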

[2] = tested on: Male C57BL/6 mice; test: Oral glucose tolerance test in C57BL/6 mice; type: in vivo; details: 3 mpk and 10 mpk oral
Description: (§1) Male C57BL/6 mice (8-10 weeks) were grouped based on basal glucose levels and animals were fasted for 16 hours. Glucose level of each animal was estimated in blood collected from tail vein before animals were dosed orally with 0.5% Tween 80 and 0.5% NaCMC (vehicle control) and compounds at 3 and 10 mpk (n=5). After 30 minutes of compound dosing, blood glucose was again estimated and 2 g/kg/10 ml (20%) of Glucose solution was administered orally to all the animals. Blood glucose was estimated at 15, 30, 60, 90 and 120 minutes time points after glucose administration. Accu-Check active blood glucose meter was utilised for estimation of blood from tail vein.
Glucose reduction observed in animals treated with compounds of present invention is represented in terms of % AUC reduction. A greater glucose reduction in oral glucose tolerance test indicates the compound's efficacy in this rodent species.

[3] = tested on: Male SD rats; test: Oral glucose tolerance test in Sprague-Dawley rats; type: in vivo; details: 3 mpk and 10 mpk oral
Description: as §1, with “SD rats” for “C57BL/6 mice”
Glucose reduction observed in animals treated with GPR119 agonists is represented in terms of % AUC reduction. A greater glucose reduction in oral glucose tolerance test indicates the compound's efficacy in this rodent species.

Compound | activation at 1 µM [1] [%] | EC50 [1] | glucose reduction (% AUC reduction) in oral glucose tolerance test [2] | glucose reduction (% AUC reduction) in oral glucose tolerance test [3]
CCCc1cnc(N2CCC(C(C)Oc3nn4cc(-c5ccc(S(C)(=O)=O)nc5)nc4s3)CC2)nc1 (stereo in doubt) [Compound 1081, 2-((S)-1-(1-(5-propylpyrimidin-2-yl)piperidin-4-yl)ethoxy)-6-(6-(methylsulfonyl)pyridin-3-yl)imidazo[2,1-b][1,3,4]thiadiazole] | 66 | A++ | significant dose dependent glucose reduction | 
CC(Oc1nn2cc(-c3ccc(S(C)(=O)=O)cc3F)nc2s1)C1CCN(c2ncc(Cl)cn2)CC1 (stereo in doubt) [Compound 1090, 2-((S)-1-(1-(5-chloropyrimidin-2-yl)piperidin-4-yl)ethoxy)-6-(2-fluoro-4-(methylsulfonyl)phenyl)imidazo[2,1-b][1,3,4]thiadiazole] | 76 | A++ | significant dose dependent glucose reduction | significant dose dependent glucose reduction
CC(C)c1noc(N2CCC([C@@H](C)Oc3nn4cc(-c5ccncc5)nc4s3)CC2)n1 [Compound 1059, (R)-3-isopropyl-5-(4-(1-((6-(pyridin-4-yl)imidazo[2,1-b][1,3,4]thiadiazol-2-yl)oxy)ethyl)piperidin-1-yl)-1,2,4-oxadiazole] | 68 | A++ | significant dose dependent glucose reduction | significant dose dependent glucose reduction
CCCc1cnc(N2CCC([C@H](C)Oc3nn4cc(-c5ccc(S(C)(=O)=O)cc5)nc4s3)CC2)nc1 [Compound 1067, (S)-6-(4-(methylsulfonyl)phenyl)-2-(1-(1-(5-propylpyrimidin-2-yl)piperidin-4-yl)ethoxy)imidazo[2,1-b][1,3,4]thiadiazole] | 55 | A++ | significant dose dependent glucose reduction | significant dose dependent glucose reduction
CC(C)c1noc(N2CCC([C@H](C)Oc3nn4cc(-c5cnc(Cl)nc5)nc4s3)CC2)n1 [Compound 1071, (S)-5-(4-(1-((6-(2-chloropyrimidin-5-yl)imidazo[2,1-b][1,3,4]thiadiazol-2-yl)oxy)ethyl)piperidin-1-yl)-3-isopropyl-1,2,4-oxadiazole] | 75 | A++ | significant dose dependent glucose reduction | significant dose dependent glucose reduction
CC(C)c1noc(N2CCC([C@H](C)Oc3nn4cc(-c5cnc(S(C)(=O)=O)nc5)nc4s3)CC2)n1 [Compound 1072, (S)-3-isopropyl-5-(4-(1-((6-(2-(methylsulfonyl)pyrimidin-5-yl)imidazo[2,1-b][1,3,4]thiadiazol-2-yl)oxy)ethyl)piperidin-1-yl)-1,2,4-oxadiazole] | 72 | A++ | significant dose dependent glucose reduction | significant dose dependent glucose reduction
CCc1cnc(N2CCC([C@H](C)Oc3nn4cc(-c5ccc(S(C)(=O)=O)cc5F)nc4s3)CC2)nc1 [Compound 1086, 2-((S)-1-(1-(5-ethylpyrimidin-2-yl)piperidin-4-yl)ethoxy)-6-(2-fluoro-4-(methylsulfonyl)phenyl)imidazo[2,1-b][1,3,4]thiadiazole] | 87 | A++ | significant dose dependent glucose reduction | significant dose dependent glucose reduction
CC(C)c1noc(N2CCC([C@@H](C)Oc3nn4cc(-c5cnc(Cl)cn5)nc4s3)CC2)n1 [Compound 1087, 2-((R)-1-(1-(3-isopropyl-1,2,4-oxadiazol-5-yl)piperidin-4-yl)ethoxy)-6-(5-chloropyrazin-2-yl)imidazo[2,1-b][1,3,4]thiadiazole] | 75 |  | significant dose dependent glucose reduction | significant dose dependent glucose reduction
CC(C)c1noc(N2CCC([C@@H](C)Oc3nn4cc(-c5ccc(S(C)(=O)=O)cc5F)nc4s3)CC2)n1 [Compound 1088, 2-((R)-1-(1-(3-isopropyl-1,2,4-oxadiazol-5-yl)piperidin-4-yl)ethoxy)-6-(2-fluoro-4-(methylsulfonyl)phenyl)imidazo[2,1-b][1,3,4]thiadiazole] | 73 | A++ | significant dose dependent glucose reduction | 
CC(C)c1noc(N2CCC(C(C)Oc3nn4cc(-c5ccc(S(C)(=O)=O)cc5C(F)(F)F)nc4s3)CC2)n1 (centres unmarked) [Compound 1091, 2-(1-(1-(3-isopropyl-1,2,4-oxadiazol-5-yl)piperidin-4-yl)ethoxy)-6-(2-(trifluoromethyl)-4-(methylsulfonyl)phenyl)imidazo[2,1-b][1,3,4]thiadiazole] | 33 |  |  | significant dose dependent glucose reduction
CC(C)c1noc(N2CCC(C(C)Oc3nc(-c4ccc(S(C)(=O)=O)cc4)ns3)CC2)n1 (centres unmarked) [Compound 1115, 4-(1-(3-(4-(methylsulfonyl)phenyl)-1,2,4-thiadiazol-5-yloxy)ethyl)-1-(3-isopropyl-1,2,4-oxadiazol-5-yl)piperidine] | 14 |  |  | 
CC(C)c1noc(N2CCC(Oc3nc(-c4ccc(S(C)(=O)=O)cc4)ns3)CC2)n1 [Compound 1116, 4-(3-(4-(methylsulfonyl)phenyl)-1,2,4-thiadiazol-5-yloxy)-1-(3-isopropyl-1,2,4-oxadiazol-5-yl)piperidine] | 36 |  |  | 
CC(C)c1noc(N2CCC(COc3nc(-c4ccc(S(C)(=O)=O)cc4)ns3)CC2)n1 [Compound 1117, 4-((3-(4-(methylsulfonyl)phenyl)-1,2,4-thiadiazol-5-yloxy)methyl)-1-(3-isopropyl-1,2,4-oxadiazol-5-yl)piperidine] | 2 |  |  | 
CC(C)c1noc(N2CCC(Oc3nsc(-c4ccc(S(C)(=O)=O)nc4)n3)CC2)n1 [Compound 1119, 5-(3-(1-(3-isopropyl-1,2,4-oxadiazol-5-yl)piperidin-4-yloxy)-1,2,4-thiadiazol-5-yl)-2-(methylsulfonyl)pyridine] | 7 |  |  | 
CC(C)c1noc(N2CCC(COc3nsc(-c4ccc(S(C)(=O)=O)nc4)n3)CC2)n1 [Compound 1120, 5-(3-((1-(3-isopropyl-1,2,4-oxadiazol-5-yl)piperidin-4-yl)methoxy)-1,2,4-thiadiazol-5-yl)-2-(methylsulfonyl)pyridine] | 15 |  |  | 
CCCc1cnc(N2CCC(Oc3nc(-c4ccc(S(C)(=O)=O)nc4)ns3)CC2)nc1 [Compound 1123, 2-(4-(3-(6-(methylsulfonyl)pyridin-3-yl)-1,2,4-thiadiazol-5-yloxy)piperidin-1-yl)-5-propylpyrimidine] | 18 |  |  | 
CC(C)c1noc(N2CCC(Oc3nc(N(C)c4ccc(S(C)(=O)=O)nc4)ns3)CC2)n1 [Compound 1124, N-(5-(1-(3-isopropyl-1,2,4-oxadiazol-5-yl)piperidin-4-yloxy)-1,2,4-thiadiazol-3-yl)-N-methyl-6-(methylsulfonyl)pyridin-3-amine] | 6 |  |  | 
CC(C)c1noc(N2CCC(Nc3nc(-c4ccc(S(C)(=O)=O)nc4)ns3)CC2)n1 [Compound 1126, 1-(3-isopropyl-1,2,4-oxadiazol-5-yl)-N-(3-(6-(methylsulfonyl)pyridin-3-yl)-1,2,4-thiadiazol-5-yl)piperidin-4-amine] | 7 |  |  | 
CC(C)c1noc(N2CCC(N(C)c3nc(-c4ccc(S(C)(=O)=O)nc4)ns3)CC2)n1 [Compound 1127, 1-(3-isopropyl-1,2,4-oxadiazol-5-yl)-N-methyl-N-(3-(6-(methylsulfonyl)pyridin-3-yl)-1,2,4-thiadiazol-5-yl)piperidin-4-amine] | 4 |  |  | 
